Data taken from patent US12194029B1, “Ethyl-1-(substitutedbenzoyl)-5-methylpyrrolo[1,2-a]quinoline-3-carboxylates as anticancer agents” (KING FAISAL UNIVERSITY, priority 2023, dated 2025).

Experiments:
[1] = tested on: human breast cancer cell line (MCF-7); assay: MTT cell viability / in vitro cytotoxicity assay, MCF-7; assay type: cell-based; details: MCF7, MCF-7 cells, 48 h incubation, read-out: anticancer IC50 MCF-7
Method: (§1) The human breast cancer cell line (MCF-7), and adeno carcinomic human alveolar basal epithelial cell line (A-549), were used in the present study for the investigation of cell viability assay of the synthesized compounds.
(§2) The cells were seeded in a 96-well flat-bottom microplate and maintained at 37° C. in 95% humidity and 5% CO2 overnight. The microplates were then treated with different concentrations (5-100 μM) of the samples. The cells were incubated for another 48 h. The wells were washed twice with PBS and 20 μL of the MTT staining solution was added to each well and the plate was incubated at 37° C. After 4 h, 100 μL of DMSO was added to each well to dissolve the formazan crystals and absorbance was recorded with a 570 nm using a microplate reader.
(§3) In vitro cytotoxicity was performed by 3-(4,5-dimethylthiazol-2-yl)-2,5-di-phenyltetrazolium bromide (MTT) assay. Tested compounds were dissolved in DMSO by heating at 95° C. for 10 min, cooled at room temperature and final stock concentration of 1 mg/mL was prepared in DMEM (final DMSO concentration was <1%). The stock solutions were serially diluted to obtain the concentration range of 25 to 400 μM using DMEM, and cells were treated in triplicates. Untreated cells represented a control group and pac. treated as a positive control. After 48 h of incubation, the media was aspirated, 100 μL MTT (1 mg/mL) was added to each well and the plate was incubated at 37° C. for 4 h. After incubation, the media/MTT solution was aspirated and 100 μL DMSO was added to all the wells. Using a multi-mode microplate reader, a uniform shaking (for 5 min) was applied to dissolve Formazan crystals and the absorbance was recorded at 570 nm. Cell viability was calculated using the following equation: […]
(§4) The 50% […] inhibitory concentration (IC50) was determined using Prism software version 7. Using graph Pad Prism Version 5.1, IC50 values of the compounds were calculated.
(§5) Statistical analysis of the cytotoxicity data was performed on GraphPad Prism. All cytotoxicity experiments were conducted in triplicates. Results were analyzed as the standard error of the mean (SEM) and one-way analysis of variance (ANOVA) and the Dunnet multiple comparison test was used to evaluate the treated groups and the control. Further Bonferroni post-tests were performed for comparison of the complex with cis-platin. Differences were considered significant when p<0.05.

[2] = tested on: adeno carcinomic human alveolar basal epithelial cell line (A-549); assay: MTT cell viability / in vitro cytotoxicity assay, A-549; assay type: cell-based; details: A549, A-549 cells, 48 h incubation, read-out: anticancer IC50 A-549
Method: as §1, §2, §3, §4, §5

SMILES	IC50 [1]	IC50 [2]
COC(=O)c1c(C(=O)OC)c2cc(C)c3ccccc3n2c1C(=O)c1ccc(F)cc1 [Compound 3i, Dimethyl-1-(4-fluorobenzoyl)-5-methylpyrrolo[1,2-a]quinoline-2,3-dicarboxylate]	209 nM	183 nM
CCOC(=O)c1cc(C(=O)c2cc(C(F)(F)F)cc(C(F)(F)F)c2)n2c1cc(C)c1ccccc12 [Compound 3b, Ethyl-1-(3,5-bis(trifluoromethyl)benzoyl)-5-methylpyrrolo[1,2-a]quinoline-3-carboxylate]	27 nM	99 nM
COC(=O)c1c(C(=O)OC)c2cc(C)c3ccccc3n2c1C(=O)c1cc(C(F)(F)F)cc(C(F)(F)F)c1 [Compound 3a, Dimethyl-1-(3,5-bis(trifluoromethyl)benzoyl)-5-methylpyrrolo[1,2-a]quinoline-2,3-dicarboxylate]	272 nM	433 nM
COC(=O)c1c(C(=O)OC)c2cc(C)c3ccccc3n2c1C(=O)c1ccccc1[N+](=O)[O-] [Compound 3c, Dimethyl-5-methyl-1-(2-nitrobenzoyl)pyrrolo[1,2-a]quinoline-2,3-dicarboxylate]	15 nM	316 nM
CCOC(=O)c1cc(C(=O)c2ccccc2[N+](=O)[O-])n2c1cc(C)c1ccccc12 [Compound 3d, Ethyl-5-methyl-1-(2-nitrobenzoyl)pyrrolo[1,2-a]quinoline-3-carboxylate]	85 nM	291 nM
